Residues, ends and D or L forms follow the SMILES beside them. Bounds are passed on as bounds.

In this experiment the target is IL-17RA/IL17RC dimerization induced by IL-17A (Homo sapiens, UniProt Q16552). Nature of the experiment: IL-17RA/IL17RC dimerization assay in response to IL-17A (PathHunter Cytokine Receptor Assay). In kind it is cell-based. Particulars: IL-17A at EC80; read-out: IC50 in IL-17RA/IL7RC dimerization assay. A digest of the protocol: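 PathHunter cells with IL-17RA and IL-17RC tagged for β-galactosidase complementation were preincubated 60 min with peptide (1% vehicle). IL-17A was then added at EC80 for 6–16 h at 37 °C, and chemiluminescence was read. Inhibition is relative to the EC80 and vehicle controls.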
IL-17RA/IL17RC dimerization induced by IL-17A, sequence (Q16552 24-155): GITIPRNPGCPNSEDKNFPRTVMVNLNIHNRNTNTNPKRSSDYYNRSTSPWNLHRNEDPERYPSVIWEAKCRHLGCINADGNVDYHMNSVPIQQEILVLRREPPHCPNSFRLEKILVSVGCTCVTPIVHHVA

Consider `CC[C@H](C)[C@H](NC(C)=O)C(=O)N[C@@H](Cc1c[nH]cn1)C(=O)N[C@H](C(=O)N[C@H](C(=O)N[C@H](C(=O)N1CCC[C@H]1C(=O)N[C@@H](CC(C)C)C(=O)N[C@@H](CC(=O)O)C(=O)N[C@@H](CC(C)C)C(=O)N[C@@H](Cc1c[nH]c2ccccc12)C(=O)N[C@@H](CC(=O)O)C(=O)N[C@@H](Cc1c[nH]c2ccccc12)C(=O)N[C@H](C(=O)N[C@@H](CC(N)=O)C(=O)N[C@@H](CCCCN)C(N)=O)[C@@H](C)CC)[C@@H](C)CC)[C@@H](C)O)C(C)C` [SEQ ID NO: 193] (Ac-IHVTIPLDLWDWINK-NH2), for which the IC50 was less than 10 µM. To `CC[C@H](C)[C@H](NC(C)=O)C(=O)N[C@@H](Cc1c[nH]cn1)C(=O)N[C@H](C(=O)N[C@H](C(=O)N[C@H](C(=O)N1CCC[C@H]1C(=O)N1CCC[C@H]1C(=O)N[C@@H](CC(=O)O)C(=O)N[C@@H](CC(C)C)C(=O)N[C@@H](Cc1c[nH]c2ccccc12)C(=O)N[C@@H](CC(=O)O)C(=O)N[C@@H](Cc1c[nH]c2ccccc12)C(=O)N[C@H](C(=O)N[C@@H](CC(N)=O)C(=O)N[C@@H](CCCCN)C(N)=O)[C@@H](C)CC)[C@@H](C)CC)[C@@H](C)O)C(C)C` [SEQ ID NO: 194] (Ac-IHVTIPPDLWDWINK-NH2) belongs less than 10 µM; to `CC[C@H](C)[C@H](NC(C)=O)C(=O)N[C@@H](Cc1c[nH]cn1)C(=O)N[C@H](C(=O)N[C@H](C(=O)N[C@H](C(=O)N1CCC[C@H]1C(=O)N[C@H](C(=O)N[C@@H](CC(=O)O)C(=O)N[C@@H](CC(C)C)C(=O)N[C@@H](Cc1c[nH]c2ccccc12)C(=O)N[C@@H](CC(=O)O)C(=O)N[C@@H](Cc1c[nH]c2ccccc12)C(=O)N[C@H](C(=O)N[C@@H](CC(N)=O)C(=O)N[C@@H](CCCCN)C(N)=O)[C@@H](C)CC)C(C)C)[C@@H](C)CC)[C@@H](C)O)C(C)C` [SEQ ID NO: 195] (Ac-IHVTIPVDLWDWINK-NH2), less than 10 µM; to `CC[C@H](C)[C@H](NC(C)=O)C(=O)N[C@@H](Cc1c[nH]cn1)C(=O)N[C@H](C(=O)N[C@H](C(=O)N[C@H](C(=O)N1CCC[C@H]1C(=O)N[C@H](C(=O)N[C@@H](CC(=O)O)C(=O)N[C@@H](CC(C)C)C(=O)N[C@@H](Cc1c[nH]c2ccccc12)C(=O)N[C@@H](CC(=O)O)C(=O)N[C@@H](Cc1c[nH]c2ccccc12)C(=O)N[C@H](C(=O)N[C@@H](CC(N)=O)C(=O)N[C@@H](CCCCN)C(N)=O)[C@@H](C)CC)[C@@H](C)CC)[C@@H](C)CC)[C@@H](C)O)C(C)C` [SEQ ID NO: 196] (Ac-IHVTIPIDLWDWINK-NH2), less than 10 µM. With `CC[C@H](C)[C@H](NC(C)=O)C(=O)N[C@@H](Cc1c[nH]cn1)C(=O)N[C@H](C(=O)N[C@H](C(=O)N[C@H](C(=O)N1CCC[C@H]1C(=O)N[C@@H](CC(N)=O)C(=O)N[C@@H](CC(=O)O)C(=O)N[C@@H](CC(C)C)C(=O)N[C@@H](Cc1c[nH]c2ccccc12)C(=O)N[C@@H](CC(=O)O)C(=O)N[C@@H](Cc1c[nH]c2ccccc12)C(=O)N[C@H](C(=O)N[C@@H](CC(N)=O)C(=O)N[C@@H](CCCCN)C(N)=O)[C@@H](C)CC)[C@@H](C)CC)[C@@H](C)O)C(C)C` [SEQ ID NO: 197] (Ac-IHVTIPNDLWDWINK-NH2), the IC50 was less than 10 µM. For `CC[C@H](C)[C@H](NC(C)=O)C(=O)N[C@@H](Cc1c[nH]cn1)C(=O)N[C@H](C(=O)N[C@H](C(=O)N[C@H](C(=O)N1CCC[C@H]1C(=O)N[C@@H](CCC(N)=O)C(=O)N[C@@H](CC(=O)O)C(=O)N[C@@H](CC(C)C)C(=O)N[C@@H](Cc1c[nH]c2ccccc12)C(=O)N[C@@H](CC(=O)O)C(=O)N[C@@H](Cc1c[nH]c2ccccc12)C(=O)N[C@H](C(=O)N[C@@H](CC(N)=O)C(=O)N[C@@H](CCCCN)C(N)=O)[C@@H](C)CC)[C@@H](C)CC)[C@@H](C)O)C(C)C` [SEQ ID NO: 198] (Ac-IHVTIPQDLWDWINK-NH2) the value was less than 10 µM.

On to `CC[C@H](C)[C@H](NC(C)=O)C(=O)N[C@@H](Cc1c[nH]cn1)C(=O)N[C@H](C(=O)N[C@H](C(=O)N[C@H](C(=O)N1CCC[C@H]1C(=O)N[C@@H](C)C(=O)N[C@@H](CCC(N)=O)C(=O)N[C@@H](CC(C)C)C(=O)N[C@@H](Cc1c[nH]c2ccccc12)C(=O)N[C@@H](CC(=O)O)C(=O)N[C@@H](Cc1c[nH]c2ccccc12)C(=O)N[C@H](C(=O)N[C@@H](CC(N)=O)C(=O)N[C@@H](CCCCN)C(N)=O)[C@@H](C)CC)[C@@H](C)CC)[C@@H](C)O)C(C)C` [SEQ ID NO: 199] (Ac-IHVTIPAQLWDWINK-NH2), for which the IC50 is less than 10 µM. For `CC[C@H](C)[C@H](NC(C)=O)C(=O)N[C@@H](Cc1c[nH]cn1)C(=O)N[C@H](C(=O)N[C@H](C(=O)N[C@H](C(=O)N1CCC[C@H]1C(=O)N[C@@H](C)C(=O)N[C@@H](Cc1ccc(O)cc1)C(=O)N[C@@H](CC(C)C)C(=O)N[C@@H](Cc1c[nH]c2ccccc12)C(=O)N[C@@H](CC(=O)O)C(=O)N[C@@H](Cc1c[nH]c2ccccc12)C(=O)N[C@H](C(=O)N[C@@H](CC(N)=O)C(=O)N[C@@H](CCCCN)C(N)=O)[C@@H](C)CC)[C@@H](C)CC)[C@@H](C)O)C(C)C` [SEQ ID NO: 200] (Ac-IHVTIPAYLWDWINK-NH2) the value was less than 10 µM; for `CC[C@H](C)[C@H](NC(C)=O)C(=O)N[C@@H](Cc1c[nH]cn1)C(=O)N[C@H](C(=O)N[C@H](C(=O)N[C@H](C(=O)N1CCC[C@H]1C(=O)N[C@@H](C)C(=O)N[C@@H](CC(=O)O)C(=O)N[C@@H](C)C(=O)N[C@@H](Cc1c[nH]c2ccccc12)C(=O)N[C@@H](CC(=O)O)C(=O)N[C@@H](Cc1c[nH]c2ccccc12)C(=O)N[C@H](C(=O)N[C@@H](CC(N)=O)C(=O)N[C@@H](CCCCN)C(N)=O)[C@@H](C)CC)[C@@H](C)CC)[C@@H](C)O)C(C)C` [SEQ ID NO: 201] (Ac-IHVTIPADAWDWINK-NH2), less than 10 µM; for `CC[C@H](C)[C@H](NC(C)=O)C(=O)N[C@@H](Cc1c[nH]cn1)C(=O)N[C@H](C(=O)N[C@H](C(=O)N[C@H](C(=O)N1CCC[C@H]1C(=O)N[C@@H](C)C(=O)N[C@@H](CC(=O)O)C(=O)NCC(=O)N[C@@H](Cc1c[nH]c2ccccc12)C(=O)N[C@@H](CC(=O)O)C(=O)N[C@@H](Cc1c[nH]c2ccccc12)C(=O)N[C@H](C(=O)N[C@@H](CC(N)=O)C(=O)N[C@@H](CCCCN)C(N)=O)[C@@H](C)CC)[C@@H](C)CC)[C@@H](C)O)C(C)C` [SEQ ID NO: 202] (Ac-IHVTIPADGWDWINK-NH2), less than 10 µM.

As to `CC[C@H](C)[C@H](NC(C)=O)C(=O)N[C@@H](Cc1c[nH]cn1)C(=O)N[C@H](C(=O)N[C@H](C(=O)N[C@H](C(=O)N1CCC[C@H]1C(=O)N[C@@H](C)C(=O)N[C@@H](CC(=O)O)C(=O)N1CCC[C@H]1C(=O)N[C@@H](Cc1c[nH]c2ccccc12)C(=O)N[C@@H](CC(=O)O)C(=O)N[C@@H](Cc1c[nH]c2ccccc12)C(=O)N[C@H](C(=O)N[C@@H](CC(N)=O)C(=O)N[C@@H](CCCCN)C(N)=O)[C@@H](C)CC)[C@@H](C)CC)[C@@H](C)O)C(C)C` [SEQ ID NO: 203] (Ac-IHVTIPADPWDWINK-NH2), the IC50 is less than 10 µM. As to `CC[C@H](C)[C@H](NC(C)=O)C(=O)N[C@@H](Cc1c[nH]cn1)C(=O)N[C@H](C(=O)N[C@H](C(=O)N[C@H](C(=O)N1CCC[C@H]1C(=O)N[C@@H](C)C(=O)N[C@@H](CC(=O)O)C(=O)N[C@H](C(=O)N[C@@H](Cc1c[nH]c2ccccc12)C(=O)N[C@@H](CC(=O)O)C(=O)N[C@@H](Cc1c[nH]c2ccccc12)C(=O)N[C@H](C(=O)N[C@@H](CC(N)=O)C(=O)N[C@@H](CCCCN)C(N)=O)[C@@H](C)CC)C(C)C)[C@@H](C)CC)[C@@H](C)O)C(C)C` [SEQ ID NO: 204] (Ac-IHVTIPADVWDWINK-NH2), the IC50 is less than 10 µM.

For the origin of these results see patent US11236129B2, “IL-17A binding peptides and medical uses thereof” (Dompe' Farmaceutici S.P.A., priority 2018, dated 2022).
